Source: PubChem BioAssay (NCI)
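Protocol summary: plate cells (96-well), add compound at 5 concentrations, incubate 48 h, interpolate endpoints linearly. GI50 = concentration required for 50% inhibition of growth. At the TGI there is no net growth.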

Columns and labels:
Test in all cases: growth of human tumour cells (NCI), 48 h
HOP-62 NSCLC = system: HOP-62 NSCLC
HOP-92 NSCLC = system: HOP-92 NSCLC
IGROV1 ovarian = system: IGROV1 ovarian
NCI-H23 lung = system: NCI-H23 lung
NCI-H460 lung = system: NCI-H460 lung
NCI/ADR-RES ovarian = system: NCI/ADR-RES ovarian
OVCAR-8 ovarian = system: OVCAR-8 ovarian
PC-3 prostate = system: PC-3 prostate
SK-MEL-2 melanoma = system: SK-MEL-2 melanoma
TK-10 renal = system: TK-10 renal

Structure (SMILES)	TGI (HOP-62 NSCLC) [µM]	TGI (HOP-92 NSCLC) [µM]	TGI (IGROV1 ovarian) [µM]	TGI (NCI-H23 lung) [µM]	TGI (NCI-H460 lung) [µM]	TGI (NCI/ADR-RES ovarian) [µM]	TGI (OVCAR-8 ovarian) [µM]	TGI (PC-3 prostate) [µM]	TGI (SK-MEL-2 melanoma) [µM]	TGI (TK-10 renal) [µM]	GI50 (HOP-62 NSCLC) [µM]	GI50 (HOP-92 NSCLC) [µM]	GI50 (IGROV1 ovarian) [µM]	GI50 (NCI-H23 lung) [µM]	GI50 (NCI/ADR-RES ovarian) [µM]	GI50 (OVCAR-8 ovarian) [µM]	GI50 (PC-3 prostate) [µM]	GI50 (TK-10 renal) [µM]
CC1(C)OCC2OC3([C@@H]4OC(C)(C)O[C@H]4CO)OC(C)(C)OC3C2O1 (some centres not stated)	> 100	> 100	> 100	> 100	> 100	> 100	> 100	> 100	> 100	–	–	–	–	–	–	–	–	–
O=C(O)c1cccc2cccc(-c3cccc4cccc(C(=O)O)c34)c12	> 100	–	> 100	> 100	> 100	> 100	> 100	> 100	> 100	> 100	–	–	–	–	–	–	–	–
CN1C(=O)N(C)C(O)C(Cl)(Br)C1=O (configuration not stated)	–	–	> 100	> 100	> 100	> 100	> 100	> 100	> 100	> 100	–	–	–	–	–	–	–	–
Cn1c(=O)c(-c2ccccc2)c(O)c2ccccc21	> 100	> 100	> 100	> 100	> 100	> 100	> 100	> 100	–	> 100	–	–	–	–	–	–	–	–
CC(C)C(CC(=O)OCC(CO)OC(=O)CC(C(C)C)C(C)C)C(C)C (configuration not stated)	23	16.9	33.2	30.4	26.8	27.3	–	30.3	35.2	26.3	–	–	–	–	–	–	–	–
CS(=O)(=O)CSCSSCS(C)(=O)=O	> 100	98.2	> 100	> 95.9	> 84.8	–	> 100	–	46.7	> 100	–	–	–	–	–	–	–	–
O=C1N=C2SC(=S)NC(=S)N2NC12c1ccccc1-c1ccccc12	> 10	> 10	> 10	> 10	> 10	> 10	> 10	–	–	> 10	–	–	–	–	–	–	–	–
COC(=O)[C@@H]1CCCCC[C@H]2C(CO)=C(C)C(=O)C12 (some centres not stated)	> 100	> 100	> 100	> 100	> 100	–	> 100	–	> 100	> 100	–	–	–	–	–	–	–	–
CC(C)(C)OC(=O)NC(Cc1ccccc1)NC(=O)NC(=O)OCc1ccccc1 (configuration not stated)	> 100	–	> 100	> 100	> 100	> 100	> 100	> 100	> 100	> 100	–	–	–	–	–	–	–	–
COC(=O)C1C(C(=O)OC)C2(OC(c3ccc(Cl)cc3)=CC2=O)C12OC(c1ccc(Cl)cc1)=CC2=O (configuration not stated)	–	37.6	47.7	52.2	41.5	–	–	55.8	55.3	48.5	–	–	–	–	–	–	–	–
COc1ccccc1CN=C1Nc2ccncc2S(=O)(=O)N1c1ccccc1	–	> 100	> 100	> 100	> 100	> 100	> 100	> 100	–	> 100	–	–	–	–	–	–	–	–
N#C/C(C(=O)Nc1ccc(Cl)cc1)=C(/N)N1CCCC1	> 100	> 100	> 100	> 100	> 100	> 100	> 100	> 100	> 100	–	–	–	–	–	–	–	–	–
CC1=NN(c2nc(N)nc(-c3sccc3N)n2)C(C)(C)C1	> 100	> 100	> 100	> 100	> 100	> 100	> 100	–	–	> 100	–	–	–	–	–	–	–	–
O=C1C=CC(=O)N1n1c(-c2ccccc2)n[nH]c1=O	> 100	–	> 100	> 100	> 100	> 100	> 100	> 100	> 100	> 100	–	–	–	–	–	–	–	–
COC(=O)C1=C(C(=O)OC)SC(=CC#CC=C2SC(C(=O)OC)=C(C(=O)OC)S2)S1	12.2	35.2	45.8	17.8	> 100	–	20.8	–	64.3	23.9	–	–	–	–	–	–	–	–
C=C(C)OCOCCOC	> 100	–	> 100	> 100	> 100	> 100	> 100	> 100	> 100	> 100	–	–	–	–	–	–	–	–
O=C(N/N=C(/CCN1CCCC1)CC(c1ccccc1)c1c(O)c2ccccc2oc1=O)c1ccncc1 (configuration not stated)	> 100	> 100	> 100	> 100	> 100	–	> 100	–	> 100	> 100	–	–	–	–	–	–	–	–
C=C1C(OC2O[C@@H]3O[C@@]4(C)CC[C@H]5[C@H](C)CC[C@@H](C2=C)[C@@]35O4)O[C@@H]2O[C@@]3(C)CC[C@H]4[C@H](C)CC[C@@H]1[C@@]24O3 (some centres not stated)	> 50	> 50	> 50	> 50	> 50	–	–	> 50	> 50	> 50	–	–	–	–	–	–	–	–
Cc1cc2c(O)c(c1)CN(CC(=O)O)Cc1cc(C)cc(c1O)CN(CC(=O)O)Cc1cc(C)cc(c1O)CN(CC(=O)O)C2	> 100	> 100	–	> 100	> 100	> 100	> 100	> 100	> 100	> 100	–	–	–	–	–	–	–	–
C=C1OC(c2ccccc2NC)=NC12CCCCC2	> 100	> 100	> 100	> 100	> 100	> 100	> 100	> 100	–	> 100	–	–	–	–	–	–	–	–
CN(C)/N=C(/c1nc2ccc(Cl)cc2[nH]c1=O)C(O)c1ccc(C(O)/C(=N\N(C)C)c2nc3ccc(Cl)cc3[nH]c2=O)cc1 (configuration not stated)	> 100	> 100	> 100	> 100	> 100	–	> 100	–	> 100	> 100	–	–	–	–	–	–	–	–
COc1cc(-c2n/c(=C\c3c(O)[nH]c4ccc(Cl)cc34)cc3c2=Nc2ccccc2-3)ccc1F	2.52	3.82	5.17	3.42	–	5.04	5.19	5.88	–	4.43	1.17	1.73	2.07	1.73	2.03	2.03	2	2.51
CC1C(NNc2ccccc2)Oc2cc3c(cc2C1c1ccccc1O)OCO3 (configuration not stated)	16.2	26.9	19.3	26.5	18.5	–	86.8	21.5	25.6	18.3	–	–	–	–	–	–	–	–
